Source: patent US7601743B2, “Cyano anthranilamide insecticides” (Syngenta Crop Protection, Inc., priority 2005, dated 2009)

Experiments:
Format in all cases: in vivo
[1] = test system: Diabrotica balteata; assay: Activity against Diabrotica balteata (sprayed maize seedlings); details: 144 h, 400 ppm spray on maize seedlings, 2nd instar larvae, 6 days, read-out: percentage reduction in the population (% activity)
Experimental: Maize seedlings are sprayed with an aqueous emulsion spray mixture comprising 400 ppm of active ingredient and, after the spray coating has dried on, populated with 10 larvae (2nd instar) of Diabrotica balteata and introduced into a plastic container. 6 days later, the percentage reduction in the population (% activity) is determined by comparing the number of dead larvae between the treated and untreated plants.

[2] = test system: Heliothis virescens; assay: Activity against Heliothis virescens (foliar application); details: 144 h, 400 ppm spray on young soya plants, 1st instar, 6 days, read-out: percentage reduction in the population and in the feeding damage (% activity)
Experimental: Young soya plants are sprayed with an aqueous emulsion spray mixture comprising 400 ppm of active ingredient and, after the spray coating has dried on, populated with 10 caterpillars (1st instar) of Heliothis virescens and introduced into a plastic container. 6 days later, the percentage reduction in the population and in the feeding damage (% activity) are determined by comparing the number of dead caterpillars and the feeding damage between the treated and untreated plants.

[3] = test system: Plutella xylostella; assay: Activity against Plutella xylostella; details: 72 h, 400 ppm spray on young cabbage plants, 3rd instar, 3 days, read-out: percentage reduction in the population and in the feeding damage (% activity)
Experimental: Young cabbage plants are sprayed with an aqueous emulsion spray mixture comprising 400 ppm of active ingredient and, after the spray coating has dried on, populated with 10 caterpillars (3rd instar) of Plutella xylostella and introduced into a plastic container. 3 days later, the percentage reduction in the population and in the feeding damage (% activity) are determined by comparing the number of dead caterpillars and the feeding damage between the treated and untreated plants.

[4] = test system: Spodoptera littoralis; assay: Activity against Spodoptera littoralis (sprayed soya plants); details: 72 h, 400 ppm spray on young soya plants, 1st instar, 3 days, read-out: percentage reduction in the population and in the feeding damage (% activity)
Experimental: Young soya plants are sprayed with an aqueous emulsion spray mixture comprising 400 ppm of active ingredient and, after the spray coating has dried on, populated with 10 caterpillars (1st instar) of Spodoptera littoralis and introduced into a plastic container. 3 days later, the percentage reduction in the population and in the feeding damage (% activity) are determined by comparing the number of dead caterpillars and the feeding damage between the treated and untreated plants.

Measured: inhibition at 400 ppm

Cc1cc(C#N)cc(C(=O)NC2(C3CC3)CC2)c1NC(=O)c1cc(C(F)(F)F)nn1-c1ncccc1Cl [A.1.1, 2-(3-Chloro-pyridin-2-yl)-5-trifluoromethyl-2H-pyrazole-3-carboxylic acid [2-(bicyclopropyl-1-ylcarbamoyl)-4-cyano-6-methyl-phenyl]-amide]
> 80%: all assays above
